The subject of experiment [1] is Staphylococcus aureus. Put plainly: Potentiation of ceftazidime mediated antibacterial activity against methicillin-resistant Staphylococcus aureus ATCC 43300 assessed as decrease in ceftazidime MIC at 32 ug/ml by checkerboard method relative to control. The format is functional.
The subject of experiment [2] is Staphylococcus aureus. As to the kind of experiment: Potentiation of oxacillin-mediated antibacterial activity against methicillin-resistant Staphylococcus aureus R16 clinical isolate at 32 ug/ml after 20 to 24 hrs by CLSI method. The experiment is classed as functional.
Experiment [3] concerns Staphylococcus aureus. As to the kind of experiment: Potentiation of cephalothin-mediated antibacterial activity against methicillin-resistant Staphylococcus aureus ATCC 43300 assessed as decrease in cephalothin MIC at 32 ug/ml by checkerboard method relative to control. The format is functional.
Experiment [4] deals with Staphylococcus aureus. As to the kind of experiment: Potentiation of oxacillin-mediated antibacterial activity against methicillin-resistant Staphylococcus aureus R314 clinical isolate at 32 ug/ml after 20 to 24 hrs by CLSI method. The experiment is classed as functional.
In experiment [5] the test system is Staphylococcus aureus. As to the kind of experiment: Potentiation of oxacillin-mediated antibacterial activity against methicillin-resistant Staphylococcus aureus R15 clinical isolate assessed as decrease in oxacillin MIC at 32 ug/ml after 20 to 24 hrs by CLSI method relative to control. The format is functional.
Experiment [6] has as its system Staphylococcus aureus. As to the kind of experiment: Potentiation of oxacillin-mediated antibacterial activity against methicillin-resistant Staphylococcus aureus R49 clinical isolate at 16 ug/ml after 20 to 24 hrs by CLSI method. The format is functional.
The test system of experiment [7] is Staphylococcus aureus. Put plainly: Potentiation of oxacillin-mediated antibacterial activity against methicillin-resistant Staphylococcus aureus R306 clinical isolate at 32 ug/ml after 20 to 24 hrs by CLSI method. The format is functional.
Experiment [8] has as its system Staphylococcus aureus. As to the kind of experiment: Potentiation of oxacillin-mediated antibacterial activity against methicillin-resistant Staphylococcus aureus R15 clinical isolate at 32 ug/ml after 20 to 24 hrs by CLSI method. The experiment is classed as functional.
Experiment [9] deals with Staphylococcus aureus. As to the kind of experiment: Potentiation of oxacillin-mediated antibacterial activity against methicillin-resistant Staphylococcus aureus ATCC 43300 at 32 ug/ml after 20 to 24 hrs by CLSI method. The format is functional.
The subject of experiment [10] is Staphylococcus aureus. As to the kind of experiment: Downregulation of mecA mRNA expression in methicillin-resistant Staphylococcus aureus ATCC 43300 at 32 ug/ml after 4 hrs by RT-PCR analysis in presence of oxacillin. The format is functional, organism-based.
The subject of experiment [11] is Staphylococcus aureus. Put plainly: Potentiation of oxacillin-mediated antibacterial activity against methicillin-resistant Staphylococcus aureus R16 clinical isolate assessed as decrease in oxacillin MIC at 32 ug/ml after 20 to 24 hrs by CLSI method relative to control. The format is functional.
For experiment [12], the system named is Staphylococcus aureus. As to the kind of experiment: Potentiation of oxacillin-mediated antibacterial activity against methicillin-resistant Staphylococcus aureus R53 clinical isolate assessed as decrease in oxacillin MIC at 16 ug/ml after 20 to 24 hrs by CLSI method relative to control. The experiment is classed as functional.
Experiment [13] has as its system Staphylococcus aureus. As to the kind of experiment: Potentiation of oxacillin-mediated antibacterial activity against methicillin-resistant Staphylococcus aureus R36 clinical isolate assessed as decrease in oxacillin MIC at 32 ug/ml after 20 to 24 hrs by CLSI method relative to control. The experiment is classed as functional.
Experiment [14] has as its system Staphylococcus aureus. As to the kind of experiment: Potentiation of cefaclor-mediated antibacterial activity against methicillin-resistant Staphylococcus aureus ATCC 43300 assessed as decrease in cefaclor MIC at 32 ug/ml by checkerboard method relative to control. The format is functional.
Experiment [15] deals with Staphylococcus aureus. As to the kind of experiment: Potentiation of cefuroxime mediated antibacterial activity against methicillin-resistant Staphylococcus aureus ATCC 43300 assessed as decrease in cefuroxime MIC at 32 ug/ml by checkerboard method relative to control. The format is functional.
The test system of experiment [16] is Staphylococcus aureus. As to the kind of experiment: Potentiation of cefoxitin-mediated antibacterial activity against methicillin-resistant Staphylococcus aureus ATCC 43300 assessed as decrease in cefoxitin MIC at 32 ug/ml by checkerboard method relative to control. The experiment is classed as functional.
Experiment [17] deals with Staphylococcus aureus. Put plainly: Potentiation of cefotiam-mediated antibacterial activity against methicillin-resistant Staphylococcus aureus ATCC 43300 assessed as decrease in cefotiam MIC at 32 ug/ml by checkerboard method relative to control. The experiment is classed as functional.
Experiment [18] concerns Staphylococcus aureus. As to the kind of experiment: Potentiation of cephamandole-mediated antibacterial activity against methicillin-resistant Staphylococcus aureus ATCC 43300 assessed as decrease in cephamandole MIC at 32 ug/ml by checkerboard method relative to control. The experiment is classed as functional.
In experiment [19] the test system is Staphylococcus aureus. Put plainly: Potentiation of cephazolin-mediated antibacterial activity against methicillin-resistant Staphylococcus aureus ATCC 43300 assessed as decrease in cephazolin MIC at 32 ug/ml by checkerboard method relative to control. The experiment is classed as functional.
In experiment [20] the test system is Staphylococcus aureus. Put plainly: Potentiation of oxacillin-mediated antibacterial activity against methicillin-resistant Staphylococcus aureus ATCC 43300 assessed as decrease in oxacillin MIC at 32 ug/ml by checkerboard method relative to control. The experiment is classed as functional.

The source made the active and inactive calls. A value given as a limit tells only on which side of the number the result lay.

As usually defined, the MIC is the smallest concentration in the dilution series that meets the test's criterion for growth inhibition. On to `CCCCCCCCCCCCOCc1cn([C@@H]2O[C@H](CO)[C@@H](O)[C@H](O)[C@H]2O)nn1`, for which the “fold change (FC)” value in [1], in experiment [3], in experiment [14], in experiment [15], in experiment [16] and in [17] was “<=256” each time. Further, the “fold change (FC)” value in experiment [18], in experiment [19] and in experiment [20] was “<=256” each time. The MIC in experiment [2] is 64 µg/mL; in experiment [4], 16 µg/mL; in experiment [5], 2 µg/mL; in [6], below 1 µg/mL; in experiment [7], 32 µg/mL; in experiment [8] it was 64 µg/mL. The MIC in experiment [9] was determined as 1 µg/mL; in experiment [11] it was 4 µg/mL; in experiment [12], 8 µg/mL; in experiment [13], 8 µg/mL. In addition, the result in [10] was Active.

These data come from ChEMBL document CHEMBL3608269, “Triazole-Linked Glycolipids Enhance the Susceptibility of MRSA to β-Lactam Antibiotics” (ACS Med Chem Lett, 2015).
